“Also recorded” adds a separate entry of the source. Read-outs that look alike come from different tables or passages of the source. Where no end group is shown, it is not given here.
How the values were obtained:
SCRIB PDZ domains = assay: Competition ELISA, binding to the SCRIB PDZ domains; set-up: species or system Human
Protocol: (§1) Peptides were synthesized with acetylated C termini. The binding affinities of peptides for PDZ domains were determined as 50% inhibition concentration (IC50) values using competition ELISAs, as described. The IC50 value was defined as the concentration of peptide that blocked 50% of PDZ domain binding to immobilized peptide.

SCRIB-3 = target: T1, SCRIB-3 (Homo sapiens, UniProt Q14160); assay: Competition ELISA, peptide affinity for PDZ domain; type: binding
T1 construct: synthetic peptide that targets SCRIB PDZ domains 1, 2, and 3; GST; made in house; host or cells: E. coli
T1 sequence (Q14160 1004-1093 limits assumed): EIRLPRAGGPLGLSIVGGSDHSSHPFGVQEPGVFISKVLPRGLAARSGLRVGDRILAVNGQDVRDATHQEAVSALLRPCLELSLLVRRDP
Protocol: as §1

SCRIB-1 = target: T2, SCRIB-1 (Homo sapiens, UniProt Q14160); assay: Competition ELISA, peptide affinity for PDZ domain; type: binding
T2 construct: synthetic peptide that targets SCRIB PDZ domains 1, 2, and 3; GST; made in house; host or cells: E. coli
Protocol: as §1

SCRIB-2 = target: T3, SCRIB-2 (Homo sapiens, UniProt Q14160); assay: Competition ELISA, peptide affinity for PDZ domain; type: binding
T3 construct: synthetic peptide that targets SCRIB PDZ domains 1, 2, and 3; GST; made in house; host or cells: E. coli
T3 sequence (Q14160 862-950 limits assumed): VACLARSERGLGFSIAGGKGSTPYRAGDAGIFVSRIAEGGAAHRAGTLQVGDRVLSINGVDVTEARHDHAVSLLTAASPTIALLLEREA
Protocol: as §1

[1] = target: T4, first PDZ domain of ZO-1 (TJP1–1) (Homo sapiens, UniProt Q07157); assay: biochemical; type: binding
T4 construct: the first PDZ domain of ZO-1 (TJP1–1); GST; made in house; host or cells: E. coli
T4 sequence (Q07157 23-110 limits assumed): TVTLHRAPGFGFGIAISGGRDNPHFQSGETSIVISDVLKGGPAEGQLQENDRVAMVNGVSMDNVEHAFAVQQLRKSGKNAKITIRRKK

[2] = tested on: Naive Crtam−/− CD4 T cells; assay: T cell polarization, Talin staining; type: cell-based; details: Crtam−/− CD4 T cells electroporated with Crtam plasmid; peptide 1.0 μM; restimulated after 6 h, fixed 14 h later
Protocol: (§2) Naïve Crtam^−/− CD4 T cells were purified and activated with plate-bound anti-CD3 and anti-CD28, as described. On day 4, T cells were electroporated with 4 μg of pIRES_GFP or pIRES_GFP/Crtam plasmid DNA by Amaxa Nucleofector (program X-01). Synthetic peptides (1.0 μM) were added into the cultures, and after 6 h, transfected cells were restimulated at 1 × 10^6 cells/ml with plate-bound antibodies and were fixed 14 h later for Talin staining. After 42 h, [^3H]-thymidine (1 μCi/well) was added, and the plates were harvested 8 h later.

[3] = tested on: Naive Crtam−/− CD4 T cells; assay: T cell proliferation, [3H]-thymidine incorporation; type: cell-based; details: Crtam−/− CD4 T cells electroporated with Crtam plasmid; peptide 1.0 μM; [3H]-thymidine added after 42 h, harvested 8 h later; representative of three independent experiments
Protocol: as §2

T2 sequence (Q14160 728-815 limits assumed): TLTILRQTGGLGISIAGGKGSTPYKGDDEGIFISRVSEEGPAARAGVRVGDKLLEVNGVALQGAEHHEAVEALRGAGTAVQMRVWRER

Ac-HMARRVESEV [compound 9]
Interaction with the SCRIB PDZ domains (in words) (SCRIB PDZ domains): interact with the SCRIB PDZ domains

Ac-KMARAARSKV-OH [peptide 11]
IC50 (SCRIB-3): > 500 µM
IC50 (SCRIB-1): > 500 µM
IC50 (SCRIB-2): > 500 µM
Interaction with the SCRIB PDZ domains (in words) (SCRIB PDZ domains): does not
IC50 [1]: > 500 µM

Ac-KMERTIESEV [compound 10]
Interaction with the SCRIB PDZ domains (in words) (SCRIB PDZ domains): interact with the SCRIB PDZ domains

Ac-PPRRHRETYV (N-terminus assumed) [peptide 12]
Interaction with the SCRIB PDZ domains (in words) (SCRIB PDZ domains): bound to both
Interaction with the ZO-1 PDZ domain (TJP1–1) (in words) [1]: bound to both

Ac-RQIKIWFQNRRMKWKKRSWFEAWA (N-terminus assumed) [peptide 15]
Effect on late phase of T cell polarization (Talin staining) [2]: has no effect
Interaction with the SCRIB PDZ domains (in words) (SCRIB PDZ domains; in vitro, synthesized peptides): nonbinding
Effect on T cell proliferation ([3H]-thymidine incorporation) [3]: has no effect

Ac-RQIKIWFQNRRMKWKKRSWFETWV (N-terminus assumed) [peptide 14]
Effect on late phase of T cell polarization (Talin staining) [2]: causes loss of late-phase T cell polarization
Interaction with the SCRIB PDZ domains (in words) (SCRIB PDZ domains; in vitro, synthesized peptides): binds to the SCRIB PDZ domains with high affinity
Effect on T cell proliferation ([3H]-thymidine incorporation) [3]: triggers T cell proliferation; also recorded: reverses the hypoproliferative effects of Crtam

Ac-RRRKRKRTYL (N-terminus assumed) [peptide 13]
Interaction with the SCRIB PDZ domains (in words) (SCRIB PDZ domains): interacted only with this domain
Interaction with the ZO-1 PDZ domain (TJP1–1) (in words) [1]: interacted only with this domain

Reference: paper PMC2553845, “A Specificity Map for the PDZ Domain Family” (PLoS Biology, 2008)
